Assay results published in patent US20250339569A1, “CARBONIC ANHYDRASE IX LIGANDS” (priority 2021, published 2025).
Like-named read-outs stand apart in the source and are kept apart here. Starred links: 1 amine or outer side, 2 acyl side, 3 side chain; linkers in the order of their positions; H or OH if unused. Positions of bridges follow the written chain, without caps; N, C: chain ends. Non-standard residues stand in square brackets, D forms with d. Residues, ends and D or L forms follow the SMILES beside them. *: point of attachment. Phe(3-NHCO(CH2)3SO2NH2) = N[C@@H](Cc1cccc(NC(=O)CCCS(N)(=O)=O)c1)C(=O)O; DOTA = O=C(O)CN1CCN(CC(=O)O)CCN(CC(=O)*)CCN(CC(=O)O)CC1; mXylylene = c1cc(C[*:1])cc(C[*:2])c1; X2 = O=C(CN1CCC(N[*:1])CC1)[*:2]; Dap = NC[C@H](N)C(=O)O

Columns and labels:
[1] = mouse, plasma, 24 h
[2] = human, plasma
[3] = target: T1, CAIX-expressing human HT-29 colorectal cancer cells (Homo sapiens, UniProt Q16790); experiment: FACS binding assay (IC50 determination, competition with tracer 3BP-2776 or 3BP-4149); details: 4° C., 1 hour, read-out: pIC50 category (activity) (converted)
T1 construct: CAIX-expressing human HT-29 colorectal cancer cells; host or cells: HT-29 human colorectal cancer cells
Method in brief: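 HT-29 cells in FACS buffer (PBS, 1% FCS) at 500.000 cells/ml were exposed to compounds competing with a labelled tracer, with biotinylated compounds detected by 1 μg/mL APC-streptavidin for 30 min on ice. APC/Cy5 median fluorescence was read by flow cytometry and IC50 derived by 4PL fit.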

[4] = target: T2, human carbonic anhydrase IX (hCAIX-Fc) (Homo sapiens, UniProt Q16790); experiment: Surface plasmon resonance assay with hCAIX-Fc; format: binding; details: for t1/2 category (activity): SPR dissociation half-life, hCAIX-Fc
T2 construct: purchased SinoBliological (Sino Biological) 10107-H02H

[5] = target: T3, CAIV (hCAIV-bio) (Homo sapiens, UniProt P22748); experiment: SPR selectivity assay with biotinylated CAIV; format: binding; details: SPR, biotinylated CAIV; read-out: pKD category (affinity) CAIV (converted)
T3 construct: purchased SinoBliological (Sino Biological) 10472-1H081H
T3 sequence (P22748 19-284): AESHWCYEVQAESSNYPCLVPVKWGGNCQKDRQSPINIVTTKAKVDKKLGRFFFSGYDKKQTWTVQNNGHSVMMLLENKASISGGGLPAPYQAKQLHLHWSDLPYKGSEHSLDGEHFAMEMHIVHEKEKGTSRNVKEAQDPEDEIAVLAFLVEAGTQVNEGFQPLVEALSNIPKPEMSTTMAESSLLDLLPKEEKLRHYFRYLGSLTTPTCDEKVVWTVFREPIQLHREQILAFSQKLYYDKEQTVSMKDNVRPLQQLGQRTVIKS
Procedure: (§1) In order to test selectivity of CAIX-binding peptides toward CAIV (SinoBliological, Cat #10472-1H081H), CAXII (SinoBliological, Cat #10617-H08H or CAXIV (SinoBliological, Cat #10458-H08H), SPR assays were performed analog to the assay described above but with a different target capture procedure. For immobilization, the carbonic anhydrases were biotinylated and capture on the SPR chip using the Biotin CAPture Kit (cytiva) according to the manufacturer instructions using HBSTE, 0.1% as Running Buffer.
(§2) Table 13 describes the protocol steps for biotinylated target capturing and assessment of the binding kinetics.

[6] = target: T4, CAXII (hCAXII-bio) (Homo sapiens, UniProt O43570); experiment: SPR selectivity assay with biotinylated CAXII; format: binding; details: SPR, biotinylated CAXII; read-out: pKD category (affinity) CAXII (converted)
T4 construct: purchased SinoBliological (Sino Biological) 10617-H08H
T4 sequence (O43570 25-354): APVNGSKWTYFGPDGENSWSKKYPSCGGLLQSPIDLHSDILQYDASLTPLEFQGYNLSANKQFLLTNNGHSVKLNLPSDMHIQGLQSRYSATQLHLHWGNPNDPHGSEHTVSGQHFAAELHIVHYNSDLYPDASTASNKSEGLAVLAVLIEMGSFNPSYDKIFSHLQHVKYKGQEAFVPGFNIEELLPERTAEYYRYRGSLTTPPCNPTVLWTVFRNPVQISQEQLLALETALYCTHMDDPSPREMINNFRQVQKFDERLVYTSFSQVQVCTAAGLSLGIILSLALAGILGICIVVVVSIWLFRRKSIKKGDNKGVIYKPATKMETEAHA
Procedure: as §1, §2

[7] = target: T5, CAXIV (hCAXIV-bio) (Homo sapiens, UniProt Q9ULX7); experiment: SPR selectivity assay with biotinylated CAXIV; format: binding; details: SPR, biotinylated CAXIV; read-out: pKD category (affinity) CAXIV (converted)
T5 construct: purchased SinoBliological (Sino Biological) 10458-H08H
T5 sequence (Q9ULX7 16-337): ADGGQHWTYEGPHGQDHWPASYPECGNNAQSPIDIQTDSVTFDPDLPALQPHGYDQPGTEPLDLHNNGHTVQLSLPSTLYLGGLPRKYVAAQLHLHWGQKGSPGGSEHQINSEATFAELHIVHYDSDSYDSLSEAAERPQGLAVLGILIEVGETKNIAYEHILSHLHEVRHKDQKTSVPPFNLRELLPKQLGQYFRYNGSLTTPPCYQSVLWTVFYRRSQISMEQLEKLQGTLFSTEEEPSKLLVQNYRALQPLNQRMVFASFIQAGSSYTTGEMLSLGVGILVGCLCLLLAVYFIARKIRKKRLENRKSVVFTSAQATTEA
Procedure: as §1, §2

[8] = target: T6, Recombinant soluble human NEP (Homo sapiens, UniProt P08473); experiment: Proteolytic stability assay against NEP; format: in vitro ADME; details: 100 ng/mL NEP, 10 μM compound, 37°C
T6 construct: Recombinant soluble human NEP; purchased BioTechne, Wiesbaden, Germany
T6 sequence (P08473 52-750 limits assumed): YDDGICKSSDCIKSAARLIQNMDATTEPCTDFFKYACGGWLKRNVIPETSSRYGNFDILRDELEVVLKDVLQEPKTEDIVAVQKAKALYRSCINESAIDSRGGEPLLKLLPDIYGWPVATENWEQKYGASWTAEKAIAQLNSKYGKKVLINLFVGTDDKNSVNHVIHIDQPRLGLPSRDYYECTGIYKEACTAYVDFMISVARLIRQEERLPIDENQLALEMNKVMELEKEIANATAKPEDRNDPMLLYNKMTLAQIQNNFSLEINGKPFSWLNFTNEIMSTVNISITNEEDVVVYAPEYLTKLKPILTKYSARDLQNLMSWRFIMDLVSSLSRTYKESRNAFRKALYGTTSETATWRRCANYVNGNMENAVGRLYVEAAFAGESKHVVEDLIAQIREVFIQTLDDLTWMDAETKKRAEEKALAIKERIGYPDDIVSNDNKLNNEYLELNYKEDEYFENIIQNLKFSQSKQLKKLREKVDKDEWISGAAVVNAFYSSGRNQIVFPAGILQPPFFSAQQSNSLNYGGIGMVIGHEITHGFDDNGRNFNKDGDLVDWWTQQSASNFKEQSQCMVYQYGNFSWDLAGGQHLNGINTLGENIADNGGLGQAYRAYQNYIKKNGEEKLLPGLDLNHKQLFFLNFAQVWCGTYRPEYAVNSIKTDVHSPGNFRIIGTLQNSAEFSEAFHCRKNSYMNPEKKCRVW
Procedure: To assess the stability of compounds against NEP, the compounds were subjected to an in vitro assay based on the protocol described by Edelson et al. (Edelson et al., Pulmonary pharmacology & therapeutics, 2013, 26, 229-238).
Recombinant soluble human NEP (BioTechne, Wiesbaden, Germany) at a concentration of 100 ng/mL was mixed with the compound (10 μM) and a stable internal standard (10 μM) and incubated at 37° C. After several time points, samples were taken and analyzed with LC-MS.
The activity of NEP was examined using a commercially available chromogenic substrate of NEP.

[9] = test system: dog CAIX; experiment: Radioligand binding assay, 111In-labeled compounds, CHO-VGT cells with dog CAIX; details: 111In-labeled compound, 8 h at 37°C
Procedure: (§3) In order to assess the affinity of ^111In-labeled compounds to CAIX of different species, a radioligand binding assay was established.
(§4) CHO-VGT cells were transfected with the human, dog, and mouse CAIX (InSCREENex GmbH) and cultured in Ham's F-12 medium (Sigma-Aldrich #N4888) supplemented with 10% fetal bovine serum (FCS), 2 mM L-glutamine, 100 U/mL Penicillin, and 0.1 mg/mL streptomycin. Cells were detached with Accutase (Biolegend #423201) and counted using a particle counter (CASY Model TT; Scharfe Systems, Germany). Cell concentrations were adjusted to 3×10^5 mL^−1, and 1.000 μL of the suspension per well were dispensed into flat-clear-bottom 24 well plates.
(§5) Approximately 24 hours after re-seeding, the medium was aspirated and the cells were washed once with 1000 μL assay medium (Ham's medium without additives). To determine total binding, 700 μL of assay medium and 100 μL of the radioligand dilutions were added to the wells in triplicates. To determine non-specific binding, 600 μL of binding medium, 100 μL of the radioligand dilutions and 100 μL of a blocking solution containing 8 μM non-labeled compound were added to the wells in triplicates. At the end of incubation time (8 h at 37° C.), cells were washed and subsequently harvested in 300 μL RIPA buffer (Thermo Scientific #89901) containing Protease Inhibitor Cocktail Set I (Calbiochem #539131). Radioactivity of the cell lysate of each well was counted using a gamma counter (1470 Wizard, PerkinElmer, USA). An aliquot of each radioligand dilution was included in the gamma counter measurements to allow for determination of their actual concentrations via their known specific activity.

[10] = target: T7, mouse CAIX (Mus musculus, UniProt Q8VHB5); experiment: Radioligand binding assay, 111In-labeled compounds, CHO-VGT cells with mouse CAIX; details: 111In-labeled compound, Mouse CAIX, 8 h at 37°C; read-out: pKD category (activity) (converted)
T7 construct: host or cells: CHO-VGT / CHO cells
T7 sequence (Q8VHB5 32-437): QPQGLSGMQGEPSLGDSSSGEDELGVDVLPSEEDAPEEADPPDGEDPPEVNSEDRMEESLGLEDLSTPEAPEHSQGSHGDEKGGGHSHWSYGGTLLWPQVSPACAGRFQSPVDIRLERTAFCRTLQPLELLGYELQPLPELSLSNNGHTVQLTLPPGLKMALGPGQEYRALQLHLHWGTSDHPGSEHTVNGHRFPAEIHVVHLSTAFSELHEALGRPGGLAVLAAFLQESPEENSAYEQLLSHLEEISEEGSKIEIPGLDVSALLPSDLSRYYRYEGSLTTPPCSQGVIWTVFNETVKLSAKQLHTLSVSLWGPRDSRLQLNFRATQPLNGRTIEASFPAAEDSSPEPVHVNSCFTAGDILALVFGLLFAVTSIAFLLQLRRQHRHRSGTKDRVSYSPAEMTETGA
Procedure: as §3, §4, §5

[11] = Plasma stability assay, mouse plasma; details: mouse plasma, 37°C, 24 h
[12] = Plasma stability assay, human plasma; details: 37°C
[13] = in vitro; details: mouse, plasma
[14] = in vitro; details: human, plasma
[15] = target: human CAIX (Homo sapiens, UniProt Q16790); experiment: Radioligand binding assay, 111In-labeled compounds, CHO-VGT cells with human CAIX; parameters: host or cells: CHO-VGT / CHO cells; details: 111In-labeled compound, Human CAIX, 8 h at 37°C; read-out: pKD category (activity) (converted)
Procedure: as §3, §4, §5

| Structure (SMILES) | % intact compound remaining (incubation time) [1] [%] | % intact compound remaining after 24 h incubation [2] [%] | IC50 ([3]; FACS competition on HT-29 cells, Tracer ID 3BP-2776 (10 nM, biotin-labeled)) [µM] | t1/2 category (activity) ([4]; 25° C.) | Kd [5] [µM] | Kd [6] [µM] | Kd [7] [µM] | % intact compound remaining after 24 h incubation [8] [%] | pKD category (activity) [9] | Kd [10] [µM] | % intact compound remaining (incubation time) [11] [%] | % intact compound remaining after 24 h incubation [12] [%] | IC50 ([3]; FACS binding assay, HT-29 cells, competition with tracer 3BP-2776 (10 nM, biotin-labeled)) [µM] | pKD category (affinity) CAIX ([4]; SPR, hCAIX) | Kd ([4]; SPR, hCAIX-Fc captured, 25° C., read-out: pKD category (activity) (converted)) [µM] | remaining at 24 h, […] [13] [%] | remaining at 24 h, […] [14] [%] | Kd [15] [µM] |
| --- | --- | --- | --- | --- | --- | --- | --- | --- | --- | --- | --- | --- | --- | --- | --- | --- | --- | --- |
| CC(C)C[C@@H]1NC(=O)[C@H](Cc2ccc(NC(=O)CCS(N)(=O)=O)cc2)NC(=O)[C@H](CC(=O)O)NC(=O)[C@H]2CCCN2C(=O)[C@H](CCC(=O)O)NC(=O)[C@@H](NC(=O)[C@H](CCC(N)=O)NC(=O)CN2CCN(CC(=O)O)CCN(CC(=O)O)CCN(CC(=O)O)CC2)CSCc2cccc(c2)CSC[C@@H](C(N)=O)NC(=O)[C@H](CO)NC(=O)[C@H](Cc2c[nH]c3ccccc23)NC(=O)[C@H]([C@@H](C)O)NC1=O (natLu complex, metal not drawn) [3BP-4581] | >95 | >95 | – | – | – | – | – | – | – | – | – | – | – | – | – | – | – | – |
| CC(C)C[C@@H]1NC(=O)[C@H](Cc2c[nH]c3ccccc23)NC(=O)[C@H](CC(=O)O)NC(=O)[C@H]2CCCN2C(=O)[C@H](CCC(=O)O)NC(=O)[C@@H](NC(=O)[C@H](Cc2ccc(O)cc2)NC(=O)[C@@H](NC(=O)CN2CCC(NC(=O)CN3CCN(CC(=O)O)CCN(CC(=O)O)CCN(CC(=O)O)CC3)CC2)C(C)C)CSCc2cccc(c2)CSC[C@@H](C(N)=O)NC(=O)[C@H](CO)NC(=O)[C@H](Cc2c[nH]c3ccccc23)NC(=O)[C@H]([C@@H](C)O)NC1=O [3BP-3583, DOTA-APAc-Val-Tyr-[Cys(3MeBn)-Glu-pro-Asp-Trp-Leu-Thr-Trp-Ser-Cys]-NH2] ({DOTA}-[X2]VYCE[dP]DWLTWSC-NH2; linker 4-13 via mXylylene) | – | – | < 0.01 | A (t1/2>15.0 minutes) | > 1 | > 1 | > 1 | >95 | A (pKD values >8.0) | 0.1 to 0.794 | 79 | 71 | – | – | – | – | – | – |
| CC(C)C[C@@H]1NC(=O)[C@H](Cc2cccc(NC(=O)CCCS(N)(=O)=O)c2)NC(=O)[C@H](CC(=O)O)NC(=O)[C@H]2CCCN2C(=O)[C@H](CCC(=O)O)NC(=O)[C@@H]2CSCc3cccc(c3)CSC[C@@H](C(N)=O)NC(=O)[C@H](CNC(=O)CC[C@H](NC(=O)CN3CCN(CC(=O)O)CCN(CC(=O)O)CCN(CC(=O)O)CC3)C(=O)N2)NC(=O)[C@H](Cc2c[nH]c3ccccc23)NC(=O)[C@H]([C@@H](C)O)NC1=O [3BP-4503, DOTA-{Glu-[Cys(3MeBn)-Glu-pro-Asp-Af3(Cpsu)-Leu-Thr-Trp-Dap}-Cys]-NH2] ({DOTA}-ECE[dP]D[Phe(3-NHCO(CH2)3SO2NH2)]LTW[Dap]C-NH2; lactam 1-10; linker 2-11 via mXylylene) | – | – | – | A (t1/2>15.0 minutes) | > 1 | > 1 | > 1 | – | A (pKD values >8.0) | < 0.01 | – | – | < 0.01 | A (pKD values >8.0) | < 0.01 | > 95 | > 95 | < 0.01 |
